Results taken from patent publication US4124726A, “Anti-inflammatory agent of benzoyl derivative” (priority 1976, dated 1978).

Columns and labels:
carragheenin edema = assay: acute carragheenin edema inhibition (anti-inflammatory effect); type: in vivo, male rats; settings: for ED50: oral, read-out: 50% inhibition rate ED50; for ED50 / Anti-inf. (edema inhibition rate): Table 2
Description: The edema was induced by subcutaneous injection of 1% carraheenin suspension in saline to the hind paws of male rats weighing 150 to 180 g. Each sample was orally given at the dosage of 100 mg/kg just before the inoculation of carragheenin.

platelet aggregation = assay: blood platelet aggregation inhibition, collagen as inducer; type: cell-based; settings: 10^-4 mole, rabbit PRP
Text: Blood platelet aggregation inhibiting effect
Male rabbits (Japan original white strain 3.3 to 3.6 kg) were anesthetized with Thiopental sodium and blood was sampled from the carotid artery.

in vivo = settings: mouse, po
Description: Each sample was dissolved in olive oil or dispersed in 1% Tween 20 aqueous solution.

[1] = tested on: painful stretchings induced by acetic acid; assay: acetic acid induced stretching (analgesic effect); settings: 100 mg/kg oral, 0.7% acetic acid i.p., mice
Description: Each sample was orally administrated in the dosage of 100 mg/kg before injection of acetic acid.

[2] = Rattus norvegicus, carragheenin edema, rats
[3] = 100 mg/kg oral, carragheenin edema, rats

| Compound | ED50 (carragheenin edema; [2]) | Blood platelet agg. inh. (percentage inhibition of platelet aggregation) (platelet aggregation) | LD50 at 72 h (in vivo) | Analgesic (percentage diminution of times of painful stretchings) [1] | anti-inflammatory effect, inhibition rate (ED50), in words (carragheenin edema) | Anti-inf. (carragheenin edema; Table 2', 100 mg/kg oral, carragheenin edema, rats) | Anti-inf. (edema inhibition rate) (carragheenin edema; [3]) | inhibition in vivo at 100 mg/kg (carragheenin edema; Rattus norvegicus, Table 2', 100 mg/kg oral, carragheenin edema, rats, read-out: Anti-inf.) |
| --- | --- | --- | --- | --- | --- | --- | --- | --- |
| CCCc1ccc(C(=O)c2ccccc2F)cc1 [compound 7] | 78 mg/kg | 23.0% | 1500 mg/kg | 15.0% |  |  |  |  |
| CCCCc1ccc(CCCC)c(C(=O)c2ccc(C)cc2)c1 [compound 17] | 180 mg/kg | 17.3% | 2000 mg/kg | 10.3% |  |  |  |  |
| CCCc1ccc(C(=O)Cc2ccccc2)cc1 [compound 49] |  | 28.5% | 8000 mg/kg | 18.2% |  |  |  |  |
| CCc1ccc(C(=O)c2ccc(C)cc2)cc1 [compound 33] |  | 20.5% | 3000 mg/kg | 15.5% |  |  |  |  |
| CCCCOc1ccc(C(=O)c2ccccc2)cc1 [compound 42] |  | 4.4% | 3000 mg/kg | 26.8% |  |  |  |  |
| Cc1cc(C)c(C(=O)c2ccc(Cl)cc2)c(C)c1 [compound 14] | 130 mg/kg | 18.1% | 500 mg/kg | 19.2% |  |  |  |  |
| CCCCc1ccc(C(=O)c2ccccc2F)cc1 [Active ingredient No. 8, 4-n-butyl-2'-fluorobenzophenone] |  |  |  |  | especially high inhibition rate |  |  |  |
| CCCCCCCCc1ccc(C(=O)c2cccc(I)c2)cc1 [compound 161] |  |  | 5000 mg/kg |  |  | 20.9 |  |  |
| O=C(c1ccccc1)c1ccccc1F [compound 15] | 65 mg/kg | 23.2% | 4000 mg/kg | 18.5% |  |  |  |  |
| CCCCc1ccc(C(=O)c2ccccc2Cl)cc1 [compound 44] | 70 mg/kg | 10.5% | 2000 mg/kg | 15.6% |  |  |  |  |
| CCCCCCCc1ccc(C(=O)c2ccc(C)cc2)cc1 [compound 85] |  | 18.7% |  |  |  |  | 18.7% |  |
| O=C(c1ccccc1)c1ccccc1F [Active ingredient No. 15, 2-fluorobenzophenone] |  |  |  |  | especially high inhibition rate |  |  |  |
| CCCCCc1ccc(C(=O)c2ccccc2C)cc1 [compound 41] |  | 14.4% | 3000 mg/kg | 14.6% |  |  |  |  |
| CCCCc1ccc(C(=O)c2ccc(F)cc2C)cc1 [compound 46] | 400 mg/kg | 16.5% | 2000 mg/kg | 13.4% |  |  |  |  |
| CCc1cc(CC)c(C(=O)c2ccccc2)c(CC)c1 [compound 13] | > 400 mg/kg | 14.3% | 2000 mg/kg | 15.8% |  |  |  |  |
| CCCCc1ccc(C(=O)c2ccc(CCC)cc2)cc1 [compound 98] |  | 28.3% | 4000 mg/kg | 16.4% |  |  |  |  |
| CCc1ccc(C(=O)c2ccccc2)cc1 [compound 66] |  | 20.7% | 2000 mg/kg | 15.7% |  |  |  |  |
| Cc1ccc(C(=O)c2ccccc2F)c(C)c1 [compound 10] | 90 mg/kg | 18.5% | 500 mg/kg | 20.3% |  |  |  |  |
| CCCCCc1ccc(C(=O)c2ccccc2)cc1 [compound 23] |  | 13.8% | 5000 mg/kg | 10.1% |  |  |  |  |
| Cc1ccc(C(=O)c2ccccc2)cc1C [compound 72] |  | 28.7% | 1000 mg/kg | 23.4% |  |  |  |  |
| O=C(c1ccc(F)cc1)c1ccc(F)cc1 [compound 114] |  | 26.8% | 2000 mg/kg | 18.3% |  |  |  |  |
| CCCCCc1ccc(C(=O)c2ccccc2F)cc1 [Active ingredient No. 9, 2-Fluoro-4'-n-amyl-benzophenone] |  |  |  |  | especially high inhibition rate |  |  |  |
| CCCCc1ccc(C(=O)c2ccccc2)cc1 [Active ingredient No. 19, 4-n-butyl benzophenone] |  |  |  |  | especially high inhibition rate |  |  |  |

| Compound | ED50 (carragheenin edema; [2]) | Blood platelet agg. inh. (percentage inhibition of platelet aggregation) (platelet aggregation) | LD50 at 72 h (in vivo) | Analgesic (percentage diminution of times of painful stretchings) [1] | anti-inflammatory effect, inhibition rate (ED50), in words (carragheenin edema) | Anti-inf. (carragheenin edema; Table 2', 100 mg/kg oral, carragheenin edema, rats) | Anti-inf. (edema inhibition rate) (carragheenin edema; [3]) | inhibition in vivo at 100 mg/kg (carragheenin edema; Rattus norvegicus, Table 2', 100 mg/kg oral, carragheenin edema, rats, read-out: Anti-inf.) |
| --- | --- | --- | --- | --- | --- | --- | --- | --- |
| CCc1ccc(C(=O)c2ccc(OC)cc2)cc1 [compound 107] |  | 20.3% |  |  |  |  | 20.3% |  |
| CCCCCc1ccc(C(=O)c2ccc(OC)cc2)cc1 [compound 45] | > 400 mg/kg | 17.7% | 5000 mg/kg | 12.5% |  |  |  |  |
| Cc1cc(C)c(C(=O)c2ccccc2F)c(C)c1 [compound 11] | 22 mg/kg | 16.5% | 500 mg/kg | 13.9% |  |  |  |  |
| COc1ccc(OC)c(C(=O)c2ccccc2)c1 [compound 75] |  | 30.7% | 5000 mg/kg | 22.0% |  |  |  |  |
| CCCC(C)c1ccc(C(=O)c2ccccc2F)cc1 (centres unmarked) [compound 121] |  |  | 3000 mg/kg |  |  |  |  | 64.5% |
| CCc1ccc(C(=O)c2ccc(CC)cc2)cc1 [compound 106] |  | 20.3% | 1000 mg/kg | 7.3% |  |  |  |  |
| Cc1ccc(C(=O)c2ccccc2)c(C)c1C [compound 31] |  | 18.2% | 1500 mg/kg | 9.5% |  |  |  |  |
| CCCCCc1ccc(C(=O)c2ccc(CCC)cc2)cc1 [compound 99] |  | 29.5% | 5000 mg/kg | 15.5% |  |  |  |  |
| CC(C)Cc1ccc(C(=O)c2ccccc2)cc1 [compound 67] |  | 18.5% | 2000 mg/kg | 19.1% |  |  |  |  |
| CCCCc1ccc(C(=O)c2ccc(OC)cc2)cc1 [compound 18] |  | 9.3% | 2000 mg/kg | 20.1% |  |  |  |  |
| CCCc1ccc(C(=O)c2ccc(C)cc2)cc1 [compound 34] |  | 16.4% | 5000 mg/kg | 12.1% |  |  |  |  |
| COc1cc(OC)c(C(=O)c2ccccc2)c(OC)c1 [compound 76] |  | 16.2% | 2500 mg/kg | 13.9% |  |  |  |  |
| CCCCCCc1ccc(C(=O)c2c(C)cc(C)cc2C)cc1 [compound 103] |  | 29.5% | 500 mg/kg | 14.2% |  |  |  |  |
| COc1ccc(C(=O)c2ccccc2)c(OC)c1 [compound 74] |  | 18.5% | 5000 mg/kg | 24.2% |  |  |  |  |
| Cc1cc(C)c(C(=O)c2ccccc2F)c(C)c1 [Active ingredient No. 11, 2-Fluoro-2',4',6'-trimethyl-benzophenone] |  |  |  |  | especially high inhibition rate |  |  |  |
| CCCCCCc1ccc(C(=O)c2ccccc2)cc1 [compound 24] |  | 10.5% | 6000 mg/kg | 47.7% |  |  |  |  |
| CCCCCCCCc1ccc(C(=O)c2ccccc2)cc1 [compound 26] |  | 3.1% | 10000 mg/kg | 35.9% |  |  |  |  |
| CCCc1ccc(C(=O)c2ccc(O)cc2)cc1 [compound 104] |  | 25.3% | 3000 mg/kg | 13.2% |  |  |  |  |
| O=C(c1ccccc1)c1ccccc1C(=O)c1ccccc1 [compound 113] |  | 25.8% | 4000 mg/kg | 14.5% |  |  |  |  |
| Cc1cc(C)c(C(=O)c2ccccc2)c(C)c1C [compound 79] |  | 26.8% | 1000 mg/kg | 20.8% |  |  |  |  |
| CCCCCc1ccc(C(=O)c2cccc(C)c2)cc1 [compound 89] |  | 22.6% | 10000 mg/kg | 4.3% |  |  |  |  |
| CCCCCc1ccc(C(=O)c2ccc(O)cc2)cc1 [compound 105] |  | 24.1% | 4000 mg/kg | 14.1% |  |  |  |  |
| CCCCCCCc1ccc(C(=O)c2ccccc2)cc1 [compound 25] |  | 7.8% | 8000 mg/kg | 48.6% |  |  |  |  |
